# Data from article PMC3914206.
# Experiments:
# Assay type in all cases: binding
# Conditions in all cases: Compound Concentration 10 µM
# panel of 442 kinases [1] = target: T1, panel of 442 kinases (Homo sapiens, UniProt Q16659)
# T1 construct: purchased KINOMEscan
# Source text: (§1) We assessed the selectivity of members of this scaffold using the KINOMEscan methodology across a near comprehensive panel of 442 kinases [[18,27]].
# panel of 442 kinases [2] = target: T2, panel of 442 kinases (Homo sapiens, UniProt Q8NE63)
# T2 construct: purchased KINOMEscan
# T2 sequence (Q8NE63 1-616): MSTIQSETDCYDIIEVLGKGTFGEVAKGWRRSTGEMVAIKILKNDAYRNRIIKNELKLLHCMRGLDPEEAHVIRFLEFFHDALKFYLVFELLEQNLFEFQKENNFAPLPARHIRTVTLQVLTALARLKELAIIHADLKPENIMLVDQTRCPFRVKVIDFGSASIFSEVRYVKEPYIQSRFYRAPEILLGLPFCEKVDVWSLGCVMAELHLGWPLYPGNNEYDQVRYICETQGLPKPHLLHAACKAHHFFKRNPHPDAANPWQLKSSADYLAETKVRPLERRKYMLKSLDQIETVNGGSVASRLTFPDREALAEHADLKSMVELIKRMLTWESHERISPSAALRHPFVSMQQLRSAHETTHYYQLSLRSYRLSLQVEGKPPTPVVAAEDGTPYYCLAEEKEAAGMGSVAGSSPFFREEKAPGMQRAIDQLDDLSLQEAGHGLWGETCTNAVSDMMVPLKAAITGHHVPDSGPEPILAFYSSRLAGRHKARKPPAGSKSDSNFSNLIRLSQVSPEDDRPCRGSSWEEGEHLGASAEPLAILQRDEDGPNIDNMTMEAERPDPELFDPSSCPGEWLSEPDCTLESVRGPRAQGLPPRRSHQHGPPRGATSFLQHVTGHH
# Source text: as §1
# panel of 442 kinases [3] = target: T3, panel of 442 kinases (Homo sapiens, UniProt Q99755)
# T3 construct: purchased KINOMEscan
# T3 sequence (Q99755 whole entry): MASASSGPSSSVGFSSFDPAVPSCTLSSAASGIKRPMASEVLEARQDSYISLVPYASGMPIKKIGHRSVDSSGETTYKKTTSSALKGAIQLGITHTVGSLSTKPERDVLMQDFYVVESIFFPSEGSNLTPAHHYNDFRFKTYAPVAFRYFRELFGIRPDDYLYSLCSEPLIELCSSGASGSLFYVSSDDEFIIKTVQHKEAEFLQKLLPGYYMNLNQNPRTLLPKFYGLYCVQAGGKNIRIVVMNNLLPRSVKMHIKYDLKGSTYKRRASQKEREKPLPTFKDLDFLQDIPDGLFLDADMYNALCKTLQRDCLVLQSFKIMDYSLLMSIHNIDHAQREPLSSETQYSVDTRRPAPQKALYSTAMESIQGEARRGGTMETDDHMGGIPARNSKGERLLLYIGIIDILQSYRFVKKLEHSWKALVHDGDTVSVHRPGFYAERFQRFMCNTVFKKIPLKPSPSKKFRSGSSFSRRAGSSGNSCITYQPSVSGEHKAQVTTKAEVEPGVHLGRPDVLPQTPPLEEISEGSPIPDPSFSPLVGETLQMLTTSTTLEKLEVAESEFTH
# Source text: as §1
# T1 sequence (Q16659 whole entry): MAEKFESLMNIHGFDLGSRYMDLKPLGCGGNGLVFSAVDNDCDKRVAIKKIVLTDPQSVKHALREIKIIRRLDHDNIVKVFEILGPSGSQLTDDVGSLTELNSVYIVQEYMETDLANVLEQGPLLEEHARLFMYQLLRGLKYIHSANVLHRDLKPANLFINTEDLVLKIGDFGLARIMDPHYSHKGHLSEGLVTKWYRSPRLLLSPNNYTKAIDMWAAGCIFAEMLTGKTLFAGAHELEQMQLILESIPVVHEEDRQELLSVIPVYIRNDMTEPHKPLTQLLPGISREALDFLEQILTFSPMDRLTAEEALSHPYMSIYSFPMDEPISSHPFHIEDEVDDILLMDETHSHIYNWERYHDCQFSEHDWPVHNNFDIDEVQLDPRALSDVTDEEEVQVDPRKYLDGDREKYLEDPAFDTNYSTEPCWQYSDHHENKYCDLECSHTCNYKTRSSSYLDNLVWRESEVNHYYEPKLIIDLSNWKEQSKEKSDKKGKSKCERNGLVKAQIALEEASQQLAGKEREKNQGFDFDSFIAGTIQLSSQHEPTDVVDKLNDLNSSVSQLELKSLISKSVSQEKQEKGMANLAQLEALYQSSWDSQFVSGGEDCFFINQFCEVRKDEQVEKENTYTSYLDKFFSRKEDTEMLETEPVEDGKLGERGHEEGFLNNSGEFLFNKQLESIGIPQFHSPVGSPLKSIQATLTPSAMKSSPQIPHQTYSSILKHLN
Compound,KINOMEscan: ERK3 (panel of 442 kinases [1]),KINOMEscan: HIPK4 (panel of 442 kinases [2]),KINOMEscan: PIP5K1A (panel of 442 kinases [3])
COc1cc(C(=O)N2CCC(N3CCN(C)CC3)CC2)ccc1Nc1ncc2c(n1)N(C)c1ccccc1C(=O)N2C [15 (LRRK2-IN-1)],100,100,90
CCOc1cc(C(=O)N2CCC(N3CCN(C)CC3)CC2)ccc1Nc1ncc2c(n1)N(C1CCCC1)c1ccccc1C(=O)N2C [Compound 26],100,100,78
COc1cc(C(=O)N2CCC(N3CCN(C)CC3)CC2)ccc1Nc1ncc2c(n1)N1CCc3cccc(c31)C(=O)N2C [Compound 24],,50,
"COc1cc(C(=O)N2CCC(N3CCN(C)CC3)CC2)ccc1Nc1ncc2c(n1)N(C1CCCC1)c1ccccc1C(=O)N2C [Compound 25, 11-cyclopentyl-2-((2-methoxy-4-(4-(4-methylpiperazin-1-yl)piperidine-1-carbonyl)phenyl)amino)-5-methyl-5H-benzo[e]pyrimido[5,4-b][1,4]diazepin-6(11H)-one]",100,87,100
